Data as given in a melting point compilation (Tetko et al.; mined from patent text by program, amines drawn as free bases though some values may be those of a salt).

In the case of Nc1ccc(N2CCN(CCC3(Cc4ccc(F)cc4)OCCO3)CC2)nc1N, the melting point is reported as 118 to 119 °C.
CC(C)n1cc(-c2nc(C(N)=O)c(N)nc2-c2cccc(Cl)c2)ccc1=O gave a melting point of 233 °C.
With CC(C)CCCC(C)CCOc1ccc2c(c1)[nH]c1ccccc12 (stereo unspecified) the melting point was 188 °C.
In the case of CCC1CCCCN1C(=O)C=Cc1c(-c2ccccc2)nn2ccccc12 (stereo unspecified), the melting point is reported as 121 to 122 °C.
In the case of CC(=C1SCCCS1)c1ccc(Oc2ccc(O)cc2)cc1, the melting point is reported as 84.5 °C.
In the case of CN(c1cc2ccccc2s1)c1nc(=O)c2cccnc2s1, the melting point is reported as 220 to 221 °C.
For CCC(=O)c1ccc(-c2ccc(Cl)cc2)o1, the melting point was 66 to 68 °C.
CSC[C@H](N)C(=O)NC(C)=O showed a melting point of 120 to 123 °C.
In the case of CCCCn1c(=O)n(C2OC(CO)C(O)C2O)c2nc(N)[nH]c(=O)c21 (stereo unspecified), the melting point is reported as > 230 °C.
For Cc1c(Cl)cc(C#N)n1CCC(C)NC(=O)C(C#N)C(C)C(C)(C)C (stereo unspecified), the melting point was 111 to 118 °C.
With COc1cc(C2CCN(C[C@H](Oc3ncc4ccc(-c5ccccc5N(C)S(C)(=O)=O)n4n3)C(F)(F)F)CC2)ccc1N the melting point was 85 to 96 °C.
CC(=O)NC(C)(C)CNc1c(C)c(C)n2nnnc2c1[N+](=O)[O-] showed a melting point of 200 to 202 °C.
Compound CSC1(C)C(=O)Nc2ccc(C3=NNC(=O)SC3C)cc21 (stereo unspecified) has a melting point of 250 °C.
Compound COc1ccc2[nH]c(-c3ccc(OC)c4nc(C(F)(F)F)ccc34)nc2c1 has a melting point of 131 to 133 °C.
With Cc1cc(Cn2c(-c3ccccc3)nc(Cl)c2CC(=O)O)ccc1O the melting point was 190 to 193 °C.
CC12CCC(=O)C=C1CCC1C2C2CC3(C(O)O2)C(C(=O)COC(=O)CC(CC(=O)O)c2ccc(O)cc2)CCC13 (stereo unspecified) gave a melting point of 145 to 152 °C.
COC(=O)CS(=O)(=O)C1CCCCC1Sc1cc(C(C)(C)C)c(O)c(C(C)(C)C)c1 (stereo unspecified) gave a melting point of 93 °C.
Compound CCCCN(CCCC)c1ccc(C=CC=CC2=C(C#N)C(=C(C#N)C#N)OC2(c2ccccc2)C(F)(F)F)c(OC)c1 (stereo unspecified) has a melting point of 190 to 192 °C.
With Clc1ccc(C(Cn2ccnc2)C2CCCC2)c(Cl)c1 (stereo unspecified) the melting point was 97.6 °C.
Work on COc1cccc2c1c1nc3ccccc3cc1n2C(C)=O yielded a melting point of 125 to 126 °C.
With O=C(O)c1ccc(NCCCCCCCCCCCc2ccccc2)cc1 the melting point was 50 to 52 °C.
CCOC(=O)N1CCC(Nc2ccc(Cl)cc2[N+](=O)[O-])CC1 gave a melting point of 116 °C.
For CCCc1c(OCCCCCCc2ccc(CCCCC(=O)O)cc2CCC(=O)O)ccc2c1OCCC2=O, the melting point was 108 to 109 °C.
Work on O=C1N(Cc2ccc(N3CCOCC3)cn2)c2ccccc2C12COc1cc3c(cc12)OCCO3 (stereo unspecified) yielded a melting point of 204 to 206 °C.
With CC1(C)CON(Cc2ccc(N)cc2Br)C1=O the melting point was 109 to 111 °C.
With CC(=O)Nc1ccc(NCCNS(C)(=O)=O)cc1 the melting point was 130 °C.
For CCCCSc1ccc2[nH]c(=O)oc(=O)c2c1, the melting point was 196 to 200 °C.
Compound CCOc1c(SC(F)(F)F)c(C#N)nn1-c1c(Cl)cc(C(F)(F)F)cc1Cl has a melting point of 106 °C.
Compound CC1CC(N)=NN1c1ccc(Cl)cn1 (stereo unspecified) has a melting point of 168 to 170 °C.
In the case of CCCCc1nc2ccc(C(=O)O)cc2n1Cc1ccc(C(=O)O)cc1, the melting point is reported as 290 °C.
In the case of CCCCOc1coc(CO)cc1=O, the melting point is reported as 68 to 73 °C.
In the case of C=CC1OC(OC)C(OCc2ccccc2)C(OCc2ccccc2)C1OCc1ccccc1 (stereo unspecified), the melting point is reported as 46 to 47 °C.
O=C1C=C(c2ccc(F)cc2)CN1 gave a melting point of 190 °C.
Compound O=C(NCc1ccc(Cl)cc1)c1cn2c3c(cc(I)cc3c1=O)CC2CO (stereo unspecified) has a melting point of 222 to 223 °C.
Compound COc1cc(O)c2c(=O)c(OC)c(-c3ccc(O)cc3OC)oc2c1 has a melting point of 191 to 192 °C.
Work on Cc1ccc(S(=O)(=O)Nc2ccc(C#N)cc2Cl)cc1 yielded a melting point of 186 to 187 °C.
Cc1cc(C#N)cc(C(C#N)c2nc(OCc3ccccc3)nc(OCc3ccccc3)c2C(C)(C)C)c1 (stereo unspecified) gave a melting point of 126 to 128 °C.
With CS(=O)(=O)c1ccc(-c2cnn(Cc3ccsc3)c(=O)c2-c2ccc(F)cc2)cc1 the melting point was 169 to 172 °C.
COC(=O)c1ccccc1S(=O)(=O)NC(=O)Nc1nc(N)cc(Cl)n1 showed a melting point of 170 to 172 °C.
Work on Nc1ncnc2c1ncn2CC/C=C/P(=O)(O)O yielded a melting point of 263 to 266 °C.
COC(C(N)=O)C(=O)O (stereo unspecified) gave a melting point of 128 to 130 °C.
In the case of CCOC(=O)c1ccc(NC2CCCc3ccccc32)cc1 (stereo unspecified), the melting point is reported as 34 °C.
COCCc1nc2c(N)nc3ccccc3c2n1CCCNS(C)(=O)=O gave a melting point of 193 to 194 °C.
Compound Nc1cccc(S(=O)(=O)Nc2ccccc2NNC=O)c1 has a melting point of 120 °C.
With COCCOCc1ccc(-c2ccc(C(=O)Nc3ccc(OC)c(N4CCN(C)CC4)c3)cc2)c(C)c1 the melting point was 147 to 148 °C.
O=C(CCCCCl)Nc1nc2ccccc2[nH]1 gave a melting point of 161 to 163 °C.
In the case of O=[N+]([O-])c1ccc(NS(=O)(=O)C(F)(F)F)c(Oc2ccc3ccccc3c2)c1, the melting point is reported as 117 to 120 °C.
For Clc1ccc(C2=NOCCS2)cc1, the melting point was 80.5 to 81.5 °C.
Nc1nonc1-c1nc2ccccc2n1CC(=O)c1ccccc1 showed a melting point of 202 to 204 °C.
Cc1nc(NC(=O)c2ccccc2)sc1C(=O)n1ccnc1 showed a melting point of 228 to 231 °C.
In the case of COc1cc(C=O)cc(OC)c1Cl, the melting point is reported as 112 to 113 °C.
